Assays:
Format in all cases: in vivo
[1] = tested on: umami and salt taste of 0.5% NaCl solution; assay: Tasting of NaCl solutions by flavourists (Example 2); details: 0.5% NaCl + 5 ppm compound compared with 0.5% NaCl reference; scale -3 (much lower) to 3 (much higher), 0 = same as reference; average of flavourists' ratings
Description: An aqueous NaCl solution (0.5% by weight) was prepared (reference) to which 5 ppm of a compound of formula (I) was added.
The samples were tasted by a group of flavourists. The intensity of the umami and salt taste of the NaCl solutions comprising a compound of formula (I) (0.5% NaCl; 5 ppm of a compound of formula (I)) was compared with that of the reference (0.5% NaCl) and rated according to the following intensity scale:
Taste effect much lower than reference: −3
Taste effect lower than reference: −2
Taste effect slightly lower than reference: −1
Taste effect same as reference: 0
Taste effect slightly higher than reference: 1
Taste effect higher than reference: 2
Taste effect much higher than reference: 3

[2] = tested on: taste of NaCl, MSG and Ribo solutions; assay: Taste enhancement of NaCl, MSG and Ribo solutions, tasted by flavourists (Example 3); details: linear scale 0 to 10; for Taste intensity NaCl: solution D (0.5% NaCl + 5 ppm compound) compared with A (0.5% NaCl, = 0.0), 5-10 flavourists; for Taste intensity MSG: solution E (0.5% NaCl + 0.03% MSG + 5 ppm compound) compared with B (0.5% NaCl + 0.03% MSG, = 5.0); for Taste intensity Ribo: solution F (0.5% NaCl + 0.015% Ribo + 5 ppm compound) compared with C (0.5% NaCl + 0.015% Ribo, = 5.0)
Description: Six solutions were prepared: • A a solution of 0.5% NaCl • B a solution of 0.5% NaCl and 0.03% MSG (monosodium glutamate) • C a solution of 0.5% NaCl and 0.015% Ribo (disodium 5-ribonucleotides=E635) • D a solution of 0.5% NaCl and 5 ppm of a compound of formula (I) • E a solution of 0.5% NaCl and 0.03% MSG and 5 ppm a compound of formula (I) • F a solution of 0.5% NaCl and 0.015% Ribo and 5 ppm of a compound of formula (I)
The samples were tasted by a group of 5-10 flavourists aged between 30 and 60. The taste of solution D was compared with that of A to determine the enhancement effect of a compound of formula (I) on NaCl. Similarly, solution E was compared with solution B and solution F with solution C to determine the enhancement effect of a compound of formula (I) on MSG and Ribo respectively. The effect was marked on a linear scale between 0 and 10, the greater the value the greater the effect. For a reference, the taste solutions of B and C were compared with A as well.

[3] = tested on: taste of vegetarian bouillon; assay: Vegetarian bouillon tasting by flavourists (Example 4); details: 10 ppm compound in vegetarian bouillon (32 g mix in 1 L boiling water); 4 flavourists
Description: A vegetarian bouillon mix was prepared from 204.71 g of sodium chloride, 147.76 g of dextrose monohydrate (ex Tapioca), 0.19 g of celery oleoresin, 0.19 g of oleoresin coriander seed, 418.64 g maltodextrin 5-8 DE, 37.65 g vegetable oil soya bean refined, 28.24 g yeast standard light, 3.76 g of onion powder, 3.76 g of garlic powder, 0.47 g of white pepper and 154.35 g of potato starch.
32 g of the well-mixed ingredients was added to 1 L of boiling water and stirred until completely dissolved.

[4] = tested on: umami- and salt-taste in comestible products; assay: Taste imparted in comestible products (general statement)

| SMILES | Taste intensity Salt (NaCl) [1] | Taste intensity Umami [1] | Taste intensity NaCl [2] | Taste intensity MSG [2] | Taste intensity Ribo [2] | Taste of test bouillon compared with reference bouillon [3] | Taste imparted in comestible products [4] |
| --- | --- | --- | --- | --- | --- | --- | --- |
| CCCNCc1ccc2c(c1)OCO2 [N-piperonyl n-propylamine] | 1.00 | 0.00 |  |  |  |  |  |
| OCCNCc1ccc2c(c1)OCO2 [N-piperonyl 2-hydroxyethylamine] | 0.75 | 0.00 |  |  |  |  |  |
| CCC(CO)NCc1ccc2c(c1)OCO2 (stereo not shown) [N-piperonyl 1-hydroxy-2-butylamine] | 0.67 | 0.33 | 1.0 | 5.3 | 5.0 |  |  |
| C[C@H](NCc1ccc2c(c1)OCO2)C(=O)O [N-piperonyl alanine] | 0.50 | 0.00 |  |  |  |  |  |
| CCNCc1ccc(O)c(OC)c1.Cl [N-vanillyl ethylamine hydrochloride] | 0.67 | 0.67 |  |  |  |  |  |
| CNCc1ccc2c(c1)OCO2 [N-piperonyl methylamine] | 0.25 | 0.00 |  |  |  |  |  |
| OCC(CO)NCc1ccc2c(c1)OCO2 [N-piperonyl 1,3-dihydroxy-2-propylamine] | 1.00 | 0.50 | 2.3 | 5.0 | 5.0 |  |  |
| CCC(CC)NCc1ccc2c(c1)OCO2 [N-piperonyl 3-pentylamine] | 0.50 | 0.00 | 1.0 | 6.3 | 5.3 | more umami, sweeter and more lingering |  |
| CCNCc1ccc2c(c1)OCO2 [N-piperonyl ethylamine] | 0.75 | 0.25 | 1.3 | 6.6 | 5.6 | more umami, more salty, slightly sweeter and had a slightly more powdery volatile effect | imparted an umami- and salt-taste |
| CC(C)NCc1ccc2c(c1)OCO2 [N-piperonyl isopropylamine] | 0.50 | 0.00 |  |  |  |  |  |
| COc1cc(CNCCO)ccc1O.Cl [N-(2-hydroxyethyl) vanillylamine hydrochloride] | 0.33 | 0.67 |  |  |  |  |  |

— patent US10226062B2, “Organic compounds” (priority 2013, dated 2019)
